Consider one compound from patent publication US11045487B2, “Pharmaceutical preparation treating bone lesions caused by malignant neoplasms” (priority 2016, dated 2021).

A short description of data set [1]: Thermal behaviour of solutions for lyophilization (DSC). The data set is classed as physicochemical. An excerpt: Differential Scanning calorimetry (DSC) was used to identify the lowest possible transient temperature in the solution throughout the entire lyophilization process, including freezing and dehydration. For the solutions of most pharmaceutical products, this parameter is represented by the glass transition temperature or “Tgt”. All components and their amounts in the solution contribute to the final value of Tgt. This temperature is usually several degrees below the temperature at which the sintered material can crumble during the lyophilization process (collapse temperature, Tc). Without determining the collapse temperature by such methods as cryomicroscopy, the glass transition temperature can be used to select the primary drying temperature. Until the primary drying is completed, the initial drying temperature should be set in such a manner that there are no vials for which the glass transition temperature has been exceeded (or Tc, if known). Otherwise, the structure of the sintered material may get broken. On the one hand, the lyophilization temperature should be close to Tgt, so that the process proceeds efficiently, and on the other hand, it cannot exceed Tgt due to process requirements and qualitative product parameters. Thus, the values of collapse and glass transition temperature are important parameters for calculating safe upper temperature limits, which can be used for lyophilization. Based on the proposed filling of the vials with the drug (100 mg of active ingredient per vial), potential solutions for filling were prepared. The excipients included sterile water for injection (SWFI), 50 mM succinate and tartrate buffers at pH 5, MgCl2, sulfobutylether β-cyclodextrin (SBEβCD), mannitol and dextran 40. In addition, for solutions containing mannitol, a study of the effect of the annealing stage (the lyophilization process stage when the samples are kept at a certain temperature below the freezing point for a certain period of time) on the improvement the crystallinity of the finished product was performed. […]

Data set [2] deals with bone lesions caused by malignant neoplasms. The data set can be described thus: Phase I open non-randomized multicenter clinical study. Conditions: patients; intravenous infusion daily for 5 days, break of 23 days; on free acid basis. The data set is classed as in vivo.
Protocol: To assess the efficacy and safety of the novel medicinal drug, clinical studies of phase I were conducted according to “Open non-randomized multicenter clinical study” protocol.
All patients received a single dosing with the study drug in a dose corresponding to the dose level of the cohort with the subsequent weekly follow-up period and at least 2 cycles of multiple dosing. The cycle consisted of daily administration (o.d.) of the drug for 5 days, followed by a break of 23 days. […] According to protocol criteria, the maximum tolerated dose is considered a dose 1 level lower than DLT (5 mg/kg).
[3] abbreviates: Succinate buffer, MBC-11 25 mg/mL, MgCl2, 86.5 mmol/L.
[4] abbreviates: Tartrate buffer, MBC-11 25 mg/mL, MgCl2, 86.5 mmol/L.

`CC(O)(P(=O)(O)O)P(=O)(O)OP(=O)(O)OC[C@H]1O[C@@H](n2ccc(N)nc2=O)[C@@H](O)[C@@H]1O.[Na].[Na].[Na]` (stereo partly drawn) [MBC-11, Trisodium salt of 1-((((((2R,3S,4S,5R)-5-(4-amino-2-oxopyrimidine-1(2H)-yl)-3,4-dihydroxytetrahydrofuran-2-yl)methoxy))(hydroxy)phosphoryloxy)(hydroxy)phosphoryl)-1-hydroxyethylphosphonic acid]: the “Thermal effect (event): endotherm” value in data set [1] (SWFI, MBC-11 25 mg/mL, MgCl2, 43.25 mmol/L) is −21 °C (endotherm). In data set [1] (SWFI, MBC-11 25 mg/mL, MgCl2, 43.25 mmol/L + Mannitol, 25 mg/mL), the “Thermal effect (event): possible crystallization” value is −27 °C. For the same compound, the “Thermal effect (event): specific endothermicity (none crystallization after temperature processing)” value in data set [1] (SWFI, MBC-11 25 mg/mL, MgCl2, 43.25 mmol/L + Mannitol, 25 mg/mL, Annealing at −20° C.) was −22 °C. Moreover, the “Thermal effect (event): weak endothermicity (none crystallization after annealing)” value in data set [1] (SWFI, MBC-11 25 mg/mL, MgCl2, 43.25 mmol/L + Mannitol, 25 mg/mL, Annealing at −24° C.) is −22 °C. For the same compound, the “Thermal effect (event): endothermicity” value is −26 °C (endothermicity) in data set [1] (SWFI, MBC-11 25 mg/mL, MgCl2, 86.5 mmol/L); −21 °C (endothermicity) in data set [1] (SWFI, MBC-11 50 mg/mL, MgCl2, 86.5 mmol/L); −26 °C (endothermicity) in data set [1] (SWFI, MBC-11 50 mg/mL, MgCl2, 173 mmol/L); −22 °C (endothermicity) in data set [1] (SWFI, MBC-11 100 mg/mL, MgCl2, 173 mmol/L); −26 °C (endothermicity) in data set [1] (SWFI, MBC-11 100 mg/mL, MgCl2, 350 mmol/L); −26 °C (endothermicity) in data set [1] (setting [3]). For the same compound, in data set [1] (setting [4]), the “Thermal effect (event): endothermicity” value was −22 °C (endothermicity). The “Thermal effect (event)” value in data set [1] (SWFI, MBC-11 25 mg/mL, MgCl2, 86.5 mmol/L + Mannitol, 25 mg/mL) is recorded as “Tgt/endothermicity before”; in data set [1] (SWFI, MBC-11 50 mg/mL, MgCl2, 86.5 mmol/L + Mannitol, 25 mg/mL) it was “Tgt/endothermicity before”; in data set [1] (SWFI, MBC-11 50 mg/mL, MgCl2, 173 mmol/L + Mannitol, 25 mg/mL), “Tgt/endothermicity before”; in data set [1] (Succinate buffer, MBC-11 25 mg/mL, MgCl2, 86.5 mmol/L + Mannitol, 25 mg/mL) it was “Tgt/endothermicity before”. Moreover, the “Thermal effect (event): crystallization” value was −34 °C (crystallization) in data set [1] (setting [3]) and −30 °C (crystallization) in data set [1] (setting [4]). The “maximum tolerated daily dose” value in data set [2] was 5 mg/kg.
